Laboratory results reported in US11083725B2 (priority 2014, dated 2021).

System: NHBE cells
Test: Biolog metabolic array: substrate use by NHBE cells with or without CA09 infection
Type: cell-based, human
Settings: for Substrate use, 590 nm absorbance normalized to zero hour, 0 hr: Biolog PMM2, 0 hr; for Substrate use, 590 nm absorbance normalized to zero hour, 1 hr: Biolog PMM2, 1 hr; for Substrate use, 590 nm absorbance normalized to zero hour, 5 hr: Biolog PMM2, 5 hr; for Substrate use, 590 nm absorbance normalized to zero hour, 7 hr: Biolog PMM2, 7 hr
[1] = Control (uninfected) NHBE cells
[2] = Virus (CA09-infected, MOI 1) NHBE cells
[3] = Virus: CA09-infected NHBE cells, MOI 1, Biolog PMM2
[4] = Virus (CA09-infected NHBE cells, MOI 1)

SMILES	590 nm absorbance normalized to zero hour (substrate use), 1 hr [1]	590 nm absorbance normalized to zero hour (substrate use), 2 hr [1]	590 nm absorbance normalized to zero hour (substrate use), 3 hr [1]	590 nm absorbance normalized to zero hour (substrate use), 4 hr [1]	590 nm absorbance normalized to zero hour (substrate use), 6 hr [1]	590 nm absorbance normalized to zero hour (substrate use), 8 hr [1]	590 nm absorbance normalized to zero hour (substrate use), 9 hr [1]	590 nm absorbance normalized to zero hour (substrate use), 10 hr [1]	590 nm absorbance normalized to zero hour (substrate use), 11 hr [1]	Substrate use, 590 nm absorbance normalized to zero hour, 1 hr [1]	Substrate use, 590 nm absorbance normalized to zero hour, 5 hr [1]	Substrate use, 590 nm absorbance normalized to zero hour, 7 hr [1]	590 nm absorbance normalized to zero hour (substrate use), 1 hr [3]	590 nm absorbance normalized to zero hour (substrate use), 2 hr [3]	590 nm absorbance normalized to zero hour (substrate use), 3 hr [3]	590 nm absorbance normalized to zero hour (substrate use), 4 hr [3]	590 nm absorbance normalized to zero hour (substrate use), 5 hr [3]	590 nm absorbance normalized to zero hour (substrate use), 6 hr [3]	590 nm absorbance normalized to zero hour (substrate use), 7 hr [3]	590 nm absorbance normalized to zero hour (substrate use), 8 hr [3]	also measured
OC[C@H]1O[C@@H](O[C@H]2[C@H](O)[C@@H](O)[C@H](O)O[C@@H]2CO)[C@H](O)[C@@H](O)[C@@H]1O [D-Cellobiose]	1.74	2.30	2.69	2.91	4.52	4.59	5.13	5.20	5.51	1.74	3.55	4.26	1.58	2.09	2.38	2.49	2.81	3.00	3.14	3.31	590 nm absorbance normalized to zero hour (substrate use), 0 hr [1]: 1.00; Substrate use, 590 nm absorbance normalized to zero hour, 0 hr [1]: 1.00; 590 nm absorbance normalized to zero hour (substrate use), 0 hr [2]: 1.00; 590 nm absorbance normalized to zero hour (substrate use), 1 hr [2]: 1.58; 590 nm absorbance normalized to zero hour (substrate use), 2 hr [2]: 2.09; 590 nm absorbance normalized to zero hour (substrate use), 3 hr [2]: 2.38; 590 nm absorbance normalized to zero hour (substrate use), 4 hr [2]: 2.49; 590 nm absorbance normalized to zero hour (substrate use), 5 hr [2]: 2.81; 590 nm absorbance normalized to zero hour (substrate use), 6 hr [2]: 3.00; 590 nm absorbance normalized to zero hour (substrate use), 7 hr [2]: 3.14; 590 nm absorbance normalized to zero hour (substrate use), 8 hr [2]: 3.31; 590 nm absorbance normalized to zero hour (substrate use), 9 hr [2]: 3.54; 590 nm absorbance normalized to zero hour (substrate use), 10 hr [2]: 3.69; 590 nm absorbance normalized to zero hour (substrate use), 11 hr [2]: 4.06; 590 nm absorbance normalized to zero hour (substrate use), 0 hr [3]: 1.00; 590 nm absorbance normalized to zero hour (substrate use), 9 hr [3]: 3.54; 590 nm absorbance normalized to zero hour (substrate use), 10 hr [3]: 3.69; 590 nm absorbance normalized to zero hour (substrate use), 11 hr [3]: 4.06
O=C(CO)[C@@H](O)[C@H](O)[C@H](O)COP(=O)(O)O [D-Fructose-6-Phosphate]	1.03	0.90	0.59	0.97	0.23	0.49	0.97	0.92	0.64	1.03	0.54	1.00	0.59	0.75	0.87	0.94	1.11	1.18	1.27	1.35	590 nm absorbance normalized to zero hour (substrate use), 1 hr [2]: 0.59; 590 nm absorbance normalized to zero hour (substrate use), 2 hr [2]: 0.75; 590 nm absorbance normalized to zero hour (substrate use), 3 hr [2]: 0.87; 590 nm absorbance normalized to zero hour (substrate use), 4 hr [2]: 0.94; 590 nm absorbance normalized to zero hour (substrate use), 5 hr [2]: 1.11; 590 nm absorbance normalized to zero hour (substrate use), 6 hr [2]: 1.18; 590 nm absorbance normalized to zero hour (substrate use), 7 hr [2]: 1.27; 590 nm absorbance normalized to zero hour (substrate use), 8 hr [2]: 1.35; 590 nm absorbance normalized to zero hour (substrate use), 9 hr [2]: 1.49; 590 nm absorbance normalized to zero hour (substrate use), 10 hr [2]: 1.55; 590 nm absorbance normalized to zero hour (substrate use), 11 hr [2]: 1.65; 590 nm absorbance normalized to zero hour (substrate use), 9 hr [3]: 1.49; 590 nm absorbance normalized to zero hour (substrate use), 10 hr [3]: 1.55; 590 nm absorbance normalized to zero hour (substrate use), 11 hr [3]: 1.65
O=C(CO)[C@@H](O)[C@H](O)[C@H](O)CO [D-Fructose]	2.31	2.22	1.77	2.00	1.51	3.38	4.01	3.99	4.24	2.31	2.59	3.18	0.44	0.58	0.71	0.79	1.00	1.09	1.17	1.26	590 nm absorbance normalized to zero hour (substrate use), 1 hr [4]: 0.44; 590 nm absorbance normalized to zero hour (substrate use), 2 hr [4]: 0.58; 590 nm absorbance normalized to zero hour (substrate use), 3 hr [4]: 0.71; 590 nm absorbance normalized to zero hour (substrate use), 4 hr [4]: 0.79; 590 nm absorbance normalized to zero hour (substrate use), 5 hr [4]: 1.00; 590 nm absorbance normalized to zero hour (substrate use), 6 hr [4]: 1.09; 590 nm absorbance normalized to zero hour (substrate use), 7 hr [4]: 1.17; 590 nm absorbance normalized to zero hour (substrate use), 8 hr [4]: 1.26; 590 nm absorbance normalized to zero hour (substrate use), 9 hr [4]: 1.43; 590 nm absorbance normalized to zero hour (substrate use), 10 hr [4]: 1.52; 590 nm absorbance normalized to zero hour (substrate use), 11 hr [4]: 1.70; 590 nm absorbance normalized to zero hour (substrate use), 9 hr [3]: 1.43; 590 nm absorbance normalized to zero hour (substrate use), 10 hr [3]: 1.52; 590 nm absorbance normalized to zero hour (substrate use), 11 hr [3]: 1.70
C[C@@H](O)[C@H](O)[C@H](O)[C@@H](O)C=O [D-Fucose]	1.61	1.96	2.02	2.15	2.11	2.49	2.69	2.78	2.97	1.61	2.65	2.19	0.66	0.33	0.67	0.64	0.62	0.65	0.65	0.60	590 nm absorbance normalized to zero hour (substrate use), 0 hr [1]: 1.00; Substrate use, 590 nm absorbance normalized to zero hour, 0 hr [1]: 1.00; 590 nm absorbance normalized to zero hour (substrate use), 0 hr [4]: 1.00; 590 nm absorbance normalized to zero hour (substrate use), 1 hr [4]: 0.66; 590 nm absorbance normalized to zero hour (substrate use), 2 hr [4]: 0.33; 590 nm absorbance normalized to zero hour (substrate use), 3 hr [4]: 0.67; 590 nm absorbance normalized to zero hour (substrate use), 4 hr [4]: 0.64; 590 nm absorbance normalized to zero hour (substrate use), 5 hr [4]: 0.62; 590 nm absorbance normalized to zero hour (substrate use), 6 hr [4]: 0.65; 590 nm absorbance normalized to zero hour (substrate use), 7 hr [4]: 0.65; 590 nm absorbance normalized to zero hour (substrate use), 8 hr [4]: 0.60; 590 nm absorbance normalized to zero hour (substrate use), 9 hr [4]: 0.52; 590 nm absorbance normalized to zero hour (substrate use), 10 hr [4]: 0.57; 590 nm absorbance normalized to zero hour (substrate use), 11 hr [4]: 0.61; 590 nm absorbance normalized to zero hour (substrate use), 0 hr [3]: 1.00; 590 nm absorbance normalized to zero hour (substrate use), 9 hr [3]: 0.52; 590 nm absorbance normalized to zero hour (substrate use), 10 hr [3]: 0.57; 590 nm absorbance normalized to zero hour (substrate use), 11 hr [3]: 0.61
